Measurements from US10710979B2, “EGFR kinase inhibitor and preparation method and use thereof” (ZHEJIANG BOSSAN PHARMACEUTICAL CO. LTD., priority 2015, dated 2020).
pIC50: −log10 of the molar value.

What was measured:
[1] = test system: human lung cancer cells H1975; assay: Effect of compounds on proliferation of tumor cells (MTT), H1975; type: cell-based; settings: for pIC50: Homo sapiens, NCI-H1975, H1975 cells, 72 hours, MTT
Experimental: (§1) Human lung cancer cells H1975, H522, human hepatoma cell HepG2, human melanoma cell A375, human epidermal cancer cell A431, and human colon cancer cells COLO205 were cultivated. The cells were collected when they have grown to logarithmic growth phase, and centrifuged at 1000 rpm for 5 min, from which the supernatant was discarded, and the rest was suspended with appropriate amount of medium, and the concentration of cells was adjusted to 2.5-5.5×10^4/ml (once it was 3.0-5.5×10^4/ml). The cell suspension was inoculated into a 96-well cell culture plate with 100 μl per well, and placed in a cell incubator (37° C., 5% CO2) for 24 hours, and then 100 μl of the drug diluted in the cell culture medium was added to each well of the drug group. Three duplicate wells were set for each drug, and the negative control group was medium containing 0.5% DMSO. After being incubated for 72 hours in the incubator, 20 μl of MTT (5 mg/ml) was added to each well, which was placed under 37° C. for 3 hours. 150 μl of DMSO was added to each well and shaken at 37° C. for 5 mins, and absorbance (OD) was determined at 492 nm. The Prism Graphpad statistical software was used to calculate IC50 values.

[2] = test system: human lung cancer cells H522; assay: Effect of compounds on proliferation of tumor cells (MTT), H522; type: cell-based; settings: NCI-H522, 72 hours
Experimental: as §1

[3] = test system: human hepatoma cell HepG2; assay: Effect of compounds on proliferation of tumor cells (MTT), HepG2; type: cell-based; settings: 72 hours
Experimental: as §1

[4] = test system: human colon cancer cells COLO205; assay: Effect of compounds on proliferation of tumor cells (MTT), COLO205; type: cell-based; settings: COLO 205, 72 hours
Experimental: as §1

human melanoma cell A375 = assay: Effect of compounds on proliferation of tumor cells (MTT), A375; type: cell-based; settings: A-375, 72 hours
Experimental: as §1

[5] = test system: human epidermal cancer cell A431; assay: Effect of compounds on proliferation of tumor cells (MTT), A431; type: cell-based; settings: A-431, 72 hours
Experimental: as §1

[6] = test system: subcutaneously transplanted lung cancer H1975 tumors; assay: In vivo efficacy in inhibiting human lung cancer H1975 xenograft; design: species or system BALB/c nude mice; settings: 30.0 mg/kg ig qd × 14 d; for Inhibition rate of tumor IR (tumor weight): tumor weight on day 14 vs negative control
Experimental: The inhibitory effect of ES series compounds to subcutaneously transplanted lung cancer H1975 tumors in nude mice was evaluated.
BALB/c nude mice, female, weighing 17-20 g, purchased from Beijing Weitong Lihua Experimental Animal Technology Co., Ltd. (license number: SCXK (Beijing) 2012-0001). Feeding environment: SPF grade animal room, free feeding, 12 h light/12 h dark.
Under aseptic conditions, H1975 cells in the proliferation stage were taken, whose cell concentration was adjusted after digestion, and seeded at armpit of nude mice with a volume of 0.1 mL. Tumor diameter was measured with vernier caliper, and after the tumor was grown to about 400 mm^3, 30 tumor-bearing mice were selected, which were randomly divided into 5 groups according to the size of the tumors. Each group was dosed according to the set dosing regimen, and the administering day was recorded as D1. The negative control group was given the same amount of vehicle. The longer and shorter diameters of tumor were measured twice a week; meanwhile the body weights of mice were weighed.
The relevant indicators were observed, measured and recorded on the first day of dosing. During the experiment, the tumor size was measured with a vernier caliper to observe the volume change and growth rate of the tumor mass. Tumor-bearing mice were sacrificed at the end of the experiment and the tumor mass was dissected and weighed.
Efficacy evaluation indicators include: relative tumor proliferation rate and weight, general status and other related toxicity indicators. At the end of the experiment, the tumor growth curve and weight change curve were drawn for each group.
The calculation formula of tumor volume (TV) is: TV=1/2×a×b^2, in which a and b respectively represent the longer and shorter diameters of the tumor. The relative tumor volume (RTV) was calculated based on the measured results and the formula was: RTV=Vt/V0, in which V0 is the tumor volume measured before dosing, and Vt is the tumor volume at each measurement after dosing.
The evaluation index of anti-tumor activity is relative tumor proliferation rate T/C (%), and the formula is as follows: […], TRTV: treatment group's RTV; CRTV: negative control group's RTV. T/C (%)≤40% and statistical treatment P<0.05 mean effective. The tumor weight (TW) is lower than that of the negative control group and statistical treatment P<0.05 mean effective. Inhibition rate of tumor IR (%)=(1−TTW/CTW)×100%, TTW: treatment group's TW; CTW: negative control group's TW.
The data was expressed as Mean±SD, and t-tests were used for comparison between groups.

Row | Structure (SMILES) | pIC50 [1] | pIC50 [2] | pIC50 [3] | pIC50 [4] | pIC50 (human melanoma cell A375) | pIC50 [5] | Inhibition rate of tumor IR (tumor weight) [6] | Inhibitory concentration relative to control compound 1686 ([1]; for most of the tumor cells of Test Example 1) | Volume of subcutaneous tumors / anti-tumor effect ([6]; after 14 days)
1 | C=CC(=O)Nc1cccc(Nc2nc(Nc3ccc(N4CCN(C(C)=O)CC4)cc3OC)ncc2C(F)(F)F)c1 [Compound 1686, reference compound] | 7.28 | 6.28 | 5.83 | 5.33 | 5.52 | 5.80 | 50.09% |  | 
2 | C=CC(=O)Nc1cccc(Nc2nc(Nc3ccc(N4CCN(C(C)=O)CC4)nc3OC)ncc2C(F)(F)F)c1 [ES-071] | 7.64 |  | 6.01 |  | 5.65 | 6.00 | 50.93% | ½ | 
3 | C=CC(=O)Nc1cccc(Nc2nc(Nc3cnc(N4CCN(C)CC4)cc3OC)ncc2C(F)(F)F)c1 [ES-075] | 7.44 |  | 5.45 |  | 5.56 | 5.90 | 37.27% |  | 
4 | C=CC(=O)Nc1cccc(Nc2nc(Nc3ccc(N4CCN(C(=O)N(C)C)CC4)nc3)ncc2C(F)(F)F)c1 [ES-158] | 6.97 | 6.13 | 5.47 | 5.71 | 5.42 | 5.97 |  |  | 
5 | C=CC(=O)Nc1cccc(Nc2nc(Nc3ccc(N4CCN(C(C)=O)CC4)nc3)ncc2C(F)(F)F)c1 [ES-157] | 7.06 | 6.18 | 5.86 | 5.75 | 5.26 | 5.74 |  |  | 
6 | C=CC(=O)Nc1cccc(Nc2nc(Nc3ccc(N4CCN(C)CC4)nc3OC)ncc2C(F)(F)F)c1 [ES-072] | 7.47 |  | 5.48 |  | 5.62 | 6.11 | 79.42% |  | better than that of the positive control group CO-1686
